What was measured:
human EP2 receptor = biological target: T1, human EP2 receptor (Homo sapiens, UniProt P43116); test: Binding ability to human EP receptors ([3H]PGE2 displacement), EP2; conditions: membranes expressing human EP2; [3H]PGE2 3 nM; Cheng-Prusoff; read-out: pKi (M) EP2 (converted)
T1 construct: expressed in transfected cells
Summary of the method: (§1)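 Membranes from cells stably expressing human EP2, EP3 or EP4 incubated to equilibrium with [3H]PGE2 and compound at 0.1 to 10 000 nM. Non-specific binding defined with 10 uM PGE2; bound label separated by vacuum filtration and quantified by scintillation counting.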

human EP4 receptor = biological target: T2, human EP4 receptor (Homo sapiens, UniProt P35408); test: Binding ability to human EP receptors ([3H]PGE2 displacement), EP4; conditions: membranes expressing human EP4; [3H]PGE2 1 nM; Cheng-Prusoff; read-out: pKi (M) EP4 (converted)
T2 construct: expressed in transfected cells
T2 sequence (P35408 whole entry): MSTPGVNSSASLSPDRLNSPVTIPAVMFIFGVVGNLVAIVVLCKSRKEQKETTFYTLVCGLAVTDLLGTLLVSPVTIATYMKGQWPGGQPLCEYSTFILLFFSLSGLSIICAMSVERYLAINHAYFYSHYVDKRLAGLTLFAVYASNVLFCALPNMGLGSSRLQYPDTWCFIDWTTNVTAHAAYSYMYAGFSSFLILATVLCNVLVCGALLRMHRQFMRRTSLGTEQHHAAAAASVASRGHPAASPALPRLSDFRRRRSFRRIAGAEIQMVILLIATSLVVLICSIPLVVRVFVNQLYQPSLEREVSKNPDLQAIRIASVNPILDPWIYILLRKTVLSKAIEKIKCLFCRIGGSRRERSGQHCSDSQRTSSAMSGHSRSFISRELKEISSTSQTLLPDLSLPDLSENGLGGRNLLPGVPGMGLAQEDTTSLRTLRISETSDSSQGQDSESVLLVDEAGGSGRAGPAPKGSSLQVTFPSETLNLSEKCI
Summary of the method: as §1

human EP3 receptor = biological target: T3, human EP3 receptor (Homo sapiens, UniProt P43115); test: Binding ability to human EP receptors ([3H]PGE2 displacement), EP3; conditions: membranes expressing human EP3; [3H]PGE2 2.5 nM; Cheng-Prusoff; read-out: pKi (M) EP3 (converted)
T3 construct: expressed in transfected cells
T3 sequence (P43115 1-390): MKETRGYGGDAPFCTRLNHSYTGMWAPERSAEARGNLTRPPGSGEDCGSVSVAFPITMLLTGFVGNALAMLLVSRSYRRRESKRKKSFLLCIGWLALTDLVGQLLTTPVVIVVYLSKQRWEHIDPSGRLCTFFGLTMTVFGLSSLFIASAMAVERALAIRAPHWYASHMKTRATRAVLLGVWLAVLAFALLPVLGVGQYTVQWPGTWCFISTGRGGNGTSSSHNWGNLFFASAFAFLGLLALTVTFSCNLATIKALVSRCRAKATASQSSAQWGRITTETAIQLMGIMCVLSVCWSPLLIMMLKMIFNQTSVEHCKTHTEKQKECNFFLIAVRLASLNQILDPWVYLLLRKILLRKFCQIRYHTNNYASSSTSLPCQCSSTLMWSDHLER
Summary of the method: as §1

[1] = biological target: T4, human EP2 prostanoid receptors (Homo sapiens, UniProt P43116); test: Agonist activity at recombinant human EP2 prostanoid receptors (cAMP in HEK-293 clones); assay type: cell-based; conditions: for EC50: HEK-293 stably transfected with human EP2, cAMP accumulation, read-out: pEC50 EP2 (converted); for activity (EP2 part): functional classification at EP2
T4 construct: expressed in transfected cells; host or cells: HEK-293
T4 sequence (P43116 whole entry): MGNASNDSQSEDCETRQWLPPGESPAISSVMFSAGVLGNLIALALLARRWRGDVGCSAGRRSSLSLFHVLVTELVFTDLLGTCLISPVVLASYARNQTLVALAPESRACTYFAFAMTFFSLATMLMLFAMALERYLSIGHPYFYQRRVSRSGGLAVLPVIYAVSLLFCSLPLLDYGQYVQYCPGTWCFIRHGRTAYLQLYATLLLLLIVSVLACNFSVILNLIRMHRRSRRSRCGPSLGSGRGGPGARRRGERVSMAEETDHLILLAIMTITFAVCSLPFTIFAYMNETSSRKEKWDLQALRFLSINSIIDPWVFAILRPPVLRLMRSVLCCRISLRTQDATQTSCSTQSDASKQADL

T1 sequence (P43116 whole entry): as above

## O=C(O)/C=C/c1cccc(NC(=O)c2ccc(-c3ccc(Cl)cc3)o2)c1 [Compound 146, 3-(3-{[5-(4-Chloro-phenyl)-furan-2-carbonyl]-amino}-phenyl)-acrylic acid]
Human EP2 receptor
  Ki: < 1e-07 M
Human EP4 receptor
  Ki: > 1e-05 M
Human EP3 receptor
  Ki: > 1e-05 M
[1]
  EC50: < 100 nM
  activity (EP2 part): EP2 Agonist

## O=C(O)CCc1cccc(NC(=O)c2ccc(-c3ccc(Cl)cc3)o2)c1 [Compound 147, 3-(3-{[5-(4-Chloro-phenyl)-furan-2-carbonyl]-amino}-phenyl)-propionic acid]
Human EP2 receptor
  Ki: < 1e-07 M
Human EP4 receptor
  Ki: > 1e-05 M
Human EP3 receptor
  Ki: > 1e-05 M
[1]
  EC50: < 100 nM
  activity (EP2 part): EP2 Agonist

## O=C(O)CCc1cccc(NC(=O)c2ccc(-c3ccc(F)cc3)o2)c1 [Compound 148, 3-(3-{[5-(4-Fluoro-phenyl)-furan-2-carbonyl]-amino}-phenyl)-propionic acid]
Human EP2 receptor
  Ki: < 1e-07 M
Human EP4 receptor
  Ki: > 1e-05 M
Human EP3 receptor
  Ki: > 1e-05 M
[1]
  EC50: < 100 nM
  activity (EP2 part): EP2 Agonist

## O=C(O)Cc1cccc(NC(=O)c2cccc(-c3ccc(Cl)cc3)n2)c1 [Compound 150, (3-{[6-(4-Chloro-phenyl)-pyridine-2-carbonyl]-amino}-phenyl)-acetic acid]
Human EP2 receptor
  Ki: < 1e-06 M
Human EP4 receptor
  Ki: > 1e-05 M
Human EP3 receptor
  Ki: > 1e-05 M
[1]
  EC50: < 1000 nM
  activity (EP2 part): EP2 Agonist

## O=C(O)/C=C/c1cccc(NC(=O)c2cccc(-c3ccc(Cl)cc3)n2)c1 [Compound 151, 3-(3-{[6-(4-Chloro-phenyl)-pyridine-2-carbonyl]-amino}-phenyl)-acrylic acid]
Human EP2 receptor
  Ki: < 1e-07 M
Human EP4 receptor
  Ki: > 1e-05 M
Human EP3 receptor
  Ki: > 1e-05 M
[1]
  EC50: < 100 nM
  activity (EP2 part): EP2 Agonist

## O=C(O)Cc1cccc(NC(=O)c2cccc(-c3ccc(F)cc3)n2)c1 [Compound 153, (3-{[6-(4-Fluoro-phenyl)-pyridine-2-carbonyl]-amino}-phenyl)-acetic acid]
Human EP2 receptor
  Ki: < 1e-07 M
Human EP4 receptor
  Ki: > 1e-05 M
Human EP3 receptor
  Ki: > 1e-05 M
[1]
  EC50: < 100 nM
  activity (EP2 part): EP2 Agonist

## O=C(O)COc1cccc(NC(=O)c2cccc(-c3ccc(Cl)cc3)n2)c1 [Compound 154, (3-{[6-(4-Chloro-phenyl)-pyridine-2-carbonyl]-amino}-phenoxy)-acetic acid]
Human EP2 receptor
  Ki: < 1e-07 M
Human EP4 receptor
  Ki: > 1e-05 M
Human EP3 receptor
  Ki: > 1e-05 M
[1]
  EC50: < 100 nM
  activity (EP2 part): EP2 Agonist

## O=C(O)/C=C/c1cccc(NC(=O)c2cccc(-c3ccc(F)cc3)n2)c1 [Compound 155, 3-(3-{[6-(4-Fluoro-phenyl)-pyridine-2-carbonyl]-amino}-phenyl)-acrylic acid]
Human EP2 receptor
  Ki: < 1e-07 M
Human EP4 receptor
  Ki: > 1e-05 M
Human EP3 receptor
  Ki: > 1e-05 M
[1]
  EC50: < 100 nM
  activity (EP2 part): EP2 Agonist

## O=C(O)COc1cccc(NC(=O)c2ccc(-c3ccc(Cl)cc3)o2)c1 [Compound 156, (3-{[5-(4-Chloro-phenyl)-furan-2-carbonyl]-amino}-phenoxy)-acetic acid]
Human EP2 receptor
  Ki: < 1e-07 M
Human EP4 receptor
  Ki: > 1e-05 M
Human EP3 receptor
  Ki: > 1e-05 M
[1]
  EC50: < 100 nM
  activity (EP2 part): EP2 Agonist

## O=C(O)COc1cccc(NC(=O)c2ccc(-c3ccc(F)cc3)o2)c1 [Compound 157, (3-{[5-(4-Fluoro-phenyl)-furan-2-carbonyl]-amino}-phenoxy)-acetic acid]
Human EP2 receptor
  Ki: < 1e-07 M
Human EP4 receptor
  Ki: > 1e-05 M
Human EP3 receptor
  Ki: > 1e-05 M
[1]
  EC50: < 100 nM
  activity (EP2 part): EP2 Agonist

## O=C(O)COc1cccc(NC(=O)c2cccc(-c3ccc(F)cc3)n2)c1 [Compound 158, (3-{[6-(4-Fluoro-phenyl)-pyridine-2-carbonyl]-amino}-phenoxy)-acetic acid]
Human EP2 receptor
  Ki: < 1e-07 M
Human EP4 receptor
  Ki: < 1e-06 M
Human EP3 receptor
  Ki: > 1e-05 M
[1]
  EC50: < 100 nM
  activity (EP2 part): EP2 Agonist

## O=C(O)CCc1cccc(NC(=O)c2cccc(-c3ccc(F)cc3)n2)c1 [Compound 159, 3-(3-{[6-(4-Fluoro-phenyl)-pyridine-2-carbonyl]amino}-phenyl)-propionic acid]
Human EP2 receptor
  Ki: < 1e-07 M
Human EP4 receptor
  Ki: > 1e-05 M
Human EP3 receptor
  Ki: > 1e-05 M
[1]
  EC50: < 100 nM
  activity (EP2 part): EP2 Agonist

## O=C(O)COc1cccc(NC(=O)c2ccc(-c3ccccc3)o2)c1 [Compound 160, {3-[(5-Phenyl-furan-2-carbonyl)-amino]-phenoxy}-acetic acid]
Human EP2 receptor
  Ki: < 1e-07 M
Human EP4 receptor
  Ki: > 1e-05 M
Human EP3 receptor
  Ki: > 1e-05 M
[1]
  EC50: < 100 nM
  activity (EP2 part): EP2 Agonist

## O=C(O)CCc1cccc(NC(=O)c2cccc(-c3cccc(F)c3)n2)c1 [Compound 162, 3-(3-{[6-(3-Fluoro-phenyl)-pyridine-2-carbonyl]-amino}-phenyl)-propionic acid]
Human EP2 receptor
  Ki: < 1e-07 M
Human EP4 receptor
  Ki: > 1e-05 M
Human EP3 receptor
  Ki: > 1e-05 M
[1]
  EC50: < 100 nM
  activity (EP2 part): EP2 Agonist

## O=C(O)CCc1cccc(NC(=O)c2ccc(-c3cccc(F)c3)o2)c1 [Compound 163, 3-(3-{[5-(3-Fluoro-phenyl)-furan-2-carbonyl]-amino}-phenyl)-propionic acid]
Human EP2 receptor
  Ki: < 1e-07 M
Human EP4 receptor
  Ki: > 1e-05 M
Human EP3 receptor
  Ki: > 1e-05 M
[1]
  EC50: < 100 nM
  activity (EP2 part): EP2 Agonist

## O=C(O)CCc1cccc(NC(=O)c2cccc(-c3ccccc3)n2)c1 [Compound 164, 3-{3-[(6-Phenyl-pyridine-2-carbonyl)-amino]-phenyl}-propionic acid]
Human EP2 receptor
  Ki: < 1e-06 M
Human EP4 receptor
  Ki: > 1e-05 M
Human EP3 receptor
  Ki: > 1e-05 M
[1]
  EC50: < 100 nM
  activity (EP2 part): EP2 Agonist

## O=C(O)COc1cccc(NC(=O)c2cc(-c3ccccc3)ccc2F)c1 [Compound 165]
Human EP2 receptor
  Ki: < 1e-07 M
Human EP4 receptor
  Ki: > 1e-05 M
Human EP3 receptor
  Ki: > 1e-05 M
[1]
  EC50: < 100 nM
  activity (EP2 part): EP2 Agonist

## O=C(O)COc1cccc(NC(=O)c2ccc(-c3cccc(F)c3)o2)c1 [Compound 168, (3-{[5-(3-Fluoro-phenyl)-furan-2-carbonyl]-amino}-phenoxy)-acetic acid]
Human EP2 receptor
  Ki: < 1e-07 M
Human EP4 receptor
  Ki: > 1e-05 M
Human EP3 receptor
  Ki: > 1e-05 M
[1]
  EC50: < 100 nM
  activity (EP2 part): EP2 Agonist

## O=C(O)COc1cccc(NC(=O)c2cc(-c3cccc(F)c3)ccc2F)c1 [Compound 169, {3-[(4,3′-Difluoro-biphenyl-3-carbonyl)-amino]-phenoxy}-acetic acid]
Human EP2 receptor
  Ki: < 1e-07 M
Human EP4 receptor
  Ki: > 1e-05 M
Human EP3 receptor
  Ki: > 1e-05 M
[1]
  EC50: < 100 nM
  activity (EP2 part): EP2 Agonist

## O=C(O)COc1cccc(NC(=O)c2cccc(-c3cccc(F)c3)n2)c1 [Compound 170, (3-{[6-(3-Fluoro-phenyl)-pyridine-2-carbonyl]-amino}-phenoxy)-acetic acid]
Human EP2 receptor
  Ki: < 1e-07 M
Human EP4 receptor
  Ki: < 1e-06 M
Human EP3 receptor
  Ki: > 1e-05 M
[1]
  EC50: < 100 nM
  activity (EP2 part): EP2 Agonist

## O=C(O)COc1cccc(NC(=O)c2cc(-c3ccc(F)cc3)ccc2F)c1 [Compound 171, {3-[(4,4′-Difluoro-biphenyl-3-carbonyl)-amino]-phenoxy}-acetic acid]
Human EP2 receptor
  Ki: < 1e-07 M
Human EP4 receptor
  Ki: > 1e-05 M
Human EP3 receptor
  Ki: > 1e-05 M
[1]
  EC50: < 100 nM
  activity (EP2 part): EP2 Agonist

## O=C(Nc1cccc(OCc2nnn[nH]2)c1)c1ccc(-c2ccccc2)o1 [Compound 173, 5-Phenyl-furan-2-carboxylic acid [3-(1H-tetrazol-5-ylmethoxy)-phenyl]-amide]
Human EP2 receptor
  Ki: < 1e-06 M
Human EP4 receptor
  Ki: > 1e-05 M
Human EP3 receptor
  Ki: > 1e-05 M
[1]
  EC50: < 100 nM
  activity (EP2 part): EP2 Agonist

## O=C(Nc1cccc(-c2nnn[nH]2)c1)c1ccc(-c2ccccc2)o1 [Compound 177, 5-Phenyl-furan-2-carboxylic acid [3-(1H-tetrazol-5-yl)-phenyl]-amide]
Human EP2 receptor
  Ki: < 1e-06 M
Human EP4 receptor
  Ki: > 1e-05 M
Human EP3 receptor
  Ki: > 1e-05 M
[1]
  EC50: < 1000 nM
  activity (EP2 part): EP2 Agonist

Reference: US7326732B2, “EP2 receptor agonists” (Pharmagene Laboratories Limited, priority 2004, dated 2008)
